According to US20240166664A1, “TRIHETEROCYCLIC COMPOUND, PREPARATION METHOD THEREFOR, AND APPLICATION THEREOF” (SHANGHAI APEIRON THERAPEUTICS COMPANY LIMITED, priority 2021, published 2024):
Where two headings read alike, the source gives them in different places.

What was measured:
[1] = molecular target: T1, PARP7 (Homo sapiens, UniProt Q7Z3E1); test: Test of inhibitory activity against PARP7 enzyme (PARP7 FLAG-tag, Probe A, time-resolved fluorescence); format: biochemical; conditions: PARP7 12 nM, Probe A 2 nM, 1 hr room temperature
T1 construct: purchased BPS 80527
T1 sequence (Q7Z3E1 1-657): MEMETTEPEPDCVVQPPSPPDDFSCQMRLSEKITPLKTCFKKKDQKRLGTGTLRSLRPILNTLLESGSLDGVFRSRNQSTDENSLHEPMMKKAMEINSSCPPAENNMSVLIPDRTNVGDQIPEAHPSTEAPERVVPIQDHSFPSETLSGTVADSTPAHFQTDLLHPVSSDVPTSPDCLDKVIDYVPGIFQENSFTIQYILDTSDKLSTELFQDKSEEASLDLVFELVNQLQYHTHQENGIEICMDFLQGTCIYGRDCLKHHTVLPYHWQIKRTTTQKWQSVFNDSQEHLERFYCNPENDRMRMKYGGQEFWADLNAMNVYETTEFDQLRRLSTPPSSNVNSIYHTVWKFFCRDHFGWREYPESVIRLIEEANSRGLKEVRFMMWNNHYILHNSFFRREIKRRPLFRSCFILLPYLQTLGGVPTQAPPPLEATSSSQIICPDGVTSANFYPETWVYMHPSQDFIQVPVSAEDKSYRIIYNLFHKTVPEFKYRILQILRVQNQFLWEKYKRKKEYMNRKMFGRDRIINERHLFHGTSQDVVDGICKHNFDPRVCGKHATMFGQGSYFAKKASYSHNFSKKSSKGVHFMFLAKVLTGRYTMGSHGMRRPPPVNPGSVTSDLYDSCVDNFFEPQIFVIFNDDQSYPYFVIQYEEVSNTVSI

[2] = test system: NCI-H1373 cells; test: Cell proliferation inhibition assay (CTG method); format: cell-based, human; conditions: read-out: IC50 (nM) for NCI-H1373 cell viability
[3] = Homo sapiens, NCI-H1373, 144 h, NCI-H1373 cells, 6 days incubation, CTG method
[4] = NCI-H1373 cells, 6 days incubation, CTG method

Row | SMILES | IC50 [1] [nM] | IC50 [2, 3] [nM] | IC50 [2, 4] [nM] | IC50 ([2]; Homo sapiens, NCI-H1373, 144 h) [nM]
1 | C[C@@H](COCCC(=O)N1CCN2c3ncc(C(F)(F)F)cc3CC[C@H]2C1)Nc1cn[nH]c(=O)c1C(F)(F)F (single isomer, unassigned) [Compound 45] | < 10 | < 100 |  | 
2 | C[C@@H](COCCC(=O)N1CCN2c3ncc(C(F)(F)F)cc3CC[C@@H]2C1)Nc1cn[nH]c(=O)c1C(F)(F)F (single isomer, unassigned) [Compound 46] | < 10 | 100 to 500 |  | 
3 | CC(COCC(O)C(=O)N1CCN2c3ncc(C(F)(F)F)cc3COCC2C1)Nc1cn[nH]c(=O)c1C(F)(F)F (single isomer, unassigned) [Compound 55] | < 10 | < 100 |  | 
4 | CC(COCC(O)C(=O)N1CCN2c3ncc(C(F)(F)F)cc3COCC2C1)Nc1cn[nH]c(=O)c1C(F)(F)F (single isomer, unassigned) [Compound 56] | < 10 |  | 100 to 500 | 
5 | C[C@@H](COCCC(=O)N1CCN2c3ncc(C(F)(F)F)cc3C(F)(F)C[C@H]2C1)Nc1cn[nH]c(=O)c1C(F)(F)F (single isomer, unassigned) [Compound 63] | < 10 | 500 to 5000 |  | 
6 | C[C@@H](COCCC(=O)N1CCN2c3ncc(C(F)(F)F)cc3C(F)(F)C[C@@H]2C1)Nc1cn[nH]c(=O)c1C(F)(F)F (single isomer, unassigned) [Compound 64] | < 10 | 500 to 5000 |  | 
7 | C[C@@H](COCCC(=O)N1CCN2c3ncc(C(F)(F)F)cc3NC(=O)CC2C1)Nc1cn[nH]c(=O)c1C(F)(F)F (single isomer, unassigned) [Compound 84] | < 10 | > 5000 |  | 
8 | C[C@H](COCCC(=O)N1CCN2c3ncc(C(F)(F)F)cc3NCC[C@H]2C1)Nc1cn[nH]c(=O)c1C(F)(F)F (stereo in doubt) [Compound 36, 5-(((R)-1-(3-oxo-3-((S)-3-(trifluoromethyl)-6,7,7a, 8,10,11-hexahydropyrazino[1,2-d]pyrido[3,2-b][1,4]diazepine-9(5H)-yl)propoxy)prop-2-yl)amino)-4-(trifluoromethyl)pyridazin-3(2H)-one] | < 10 | 500 to 5000 |  | 
9 | C[C@@H](COCCC(=O)N1CCN2c3ncc(C(F)(F)F)cc3OC[C@H]2C1)Nc1cn[nH]c(=O)c1C(F)(F)F [Compound 1, 5-(((S)-1-(3-oxo-3-((R)-3-(trifluoromethyl)-6a, 7,9,10-tetrahydropyrazino[1,2-d]pyrido[3,2-b][1,4]oxazin-8(6H)-yl)propoxy)prop-2-yl)amino)-4-(trifluoromethyl)pyridazin-3(2H)-one] | < 10 | < 100 |  | 
10 | C[C@@H](COCCC(=O)N1CCN2c3ncc(C(F)(F)F)cc3OC[C@@H]2C1)Nc1cn[nH]c(=O)c1C(F)(F)F [Compound 2, 5-(((S)-1-(3-oxo-3-((S)-3-(trifluoromethyl)-6a, 7,9,10-tetrahydropyrazino[1,2-d]pyrido[3,2-b][1,4]oxazin-8(6H)-yl)propoxy)prop-2-yl)amino)-4-(trifluoromethyl)pyridazin-3(2H)-one] | < 10 | < 100 |  | 
11 | C[C@@H](COCCC(=O)N1CCN2c3ncc(C(F)(F)F)cc3C(=O)OC[C@H]2C1)Nc1cn[nH]c(=O)c1C(F)(F)F [Compound 3, (R)-9-(3-((S)-2-((6-oxo-5-(trifluoromethyl)-1,6-dihydropyridazin-4-yl)amino)propoxy)propionyl)-3-(trifluoromethyl)-7,7a, 8,9,10,11-hexahydro-5H-pyrazino[2,1-c]pyrido[2,3-e][1,4]oxazin-5-one] | < 10 | > 5000 |  | 
12 | C[C@@H](COCCC(=O)N1CCN2c3ncc(C(F)(F)F)cc3C(=O)OC[C@@H]2C1)Nc1cn[nH]c(=O)c1C(F)(F)F [Compound 4, (S)-9-(3-((S)-2-((6-oxo-5-(trifluoromethyl)-1,6-dihydropyridazin-4-yl)amino)propoxy)propionyl)-3-(trifluoromethyl)-7,7a, 8,9,10,11-hexahydro-5H-pyrazino[2,1-c]pyrido[2,3-e][1,4]oxazin-5-one] | < 10 | > 5000 |  | 
13 | C[C@@H](COCCC(=O)N1CCN2c3ncc(C(F)(F)F)cc3NC(=O)[C@H]2C1)Nc1cn[nH]c(=O)c1C(F)(F)F [Compound 7, (R)-8-(3-((S)-2-((6-oxo-5-(trifluoromethyl)-1,6-dihydropyridazin-4-yl)amino)propoxy)propionyl)-3-(trifluoromethyl)-7,8,9,10-tetrahydro-5H-pyrazino[1,2-a]pyrido[3,2-e]pyrazin-6(6aH)-one] |  |  |  | 500 to 5000
14 | C[C@@H](COCCC(=O)N1CCN2c3ncc(C(F)(F)F)cc3NC(=O)[C@@H]2C1)Nc1cn[nH]c(=O)c1C(F)(F)F [Compound 8, (S)-8-(3-((S)-2-((6-oxo-5-(trifluoromethyl)-1,6-dihydropyridazin-4-yl)amino)propoxy)propionyl)-3-(trifluoromethyl)-7,8,9,10-tetrahydro-5H-pyrazino[1,2-a]pyrido[3,2-e]pyrazin-6(6aH)-one] |  |  |  | 100 to 500
15 | C[C@@H]1CN2c3ncc(C(F)(F)F)cc3OC[C@H]2CN1C(=O)CCOC[C@H](C)Nc1cn[nH]c(=O)c1C(F)(F)F [Compound 24, 5-(((S)-1-(3-((6aR,9R)-9-methyl-3-(trifluoromethyl)-6a, 7,9,10-tetrahydropyrazino[1,2-d]pyrido[3,2-b][1,4]oxazin-8(6H)-yl)-3-oxypropoxy)prop-2-yl)amino)-4-(trifluoromethyl)pyridazin-3(2H)-one] |  | 100 to 500 |  | 
16 | C[C@@H](COCCC(=O)N1CCN2c3ncc(C(F)(F)F)cc3N(C)C(=O)[C@@H]2C1)Nc1cn[nH]c(=O)c1C(F)(F)F [Compound 33, (S)-5-methyl-8-(3-((S)-2-((6-oxo-5-(trifluoromethyl)-1,6-dihydropyridazin-4-yl)amino)propoxy)propionyl)-3-(trifluoromethyl)-7,8,9,10-tetrahydro-5H-pyrazino[1,2-a]pyrido[3,2-e]pyrazin-6(6aH)-one] |  |  |  | < 100
17 | [2H]C([2H])([2H])N1C(=O)[C@@H]2CN(C(=O)CCOC[C@H](C)Nc3cn[nH]c(=O)c3C(F)(F)F)CCN2c2ncc(C(F)(F)F)cc21 [Compound 39, (s)-5-(methyl-D3)-8-(3-((S)-2-((6-oxo-5-(trifluoromethyl)-1,6-dihydropyridazin-4-yl)amino)propoxy)propionyl)-3-(trifluoromethyl)-7,8,9,10-tetrahydro-5H-pyrazino[1,2-a]pyrido[3,2-e]pyrazino-6(6aH)-one] |  |  |  | < 100
18 | C[C@@H](COCCC(=O)N1CCN2c3ccc(C(F)(F)F)cc3N(C)C(=O)[C@@H]2C1)Nc1cn[nH]c(=O)c1C(F)(F)F [Compound 49] |  | > 5000 |  | 
19 | C[C@@H](COCCC(=O)N1CCN2c3ncc(C(F)(F)F)cc3N(C)C(=O)[C@H]2C1)Nc1cn[nH]c(=O)c1C(F)(F)F [Compound 54, (R)-5-methyl-8-(3-((S)-2-((6-oxo-5-(trifluoromethyl)-1,6-dihydropyridazin-4-yl)amino)propoxy)propionyl)-3-(trifluoromethyl)-7,8,9, 10-tetrahydro-5H-pyrazino[1,2-a]pyrido[3,2-e]pyrazin-6(6aH)-one] |  |  |  | < 100
20 | CC(COCCC(=O)N1CCN2c3ncc(C(F)(F)F)cc3CN(C)C(=O)C2C1)Nc1cn[nH]c(=O)c1C(F)(F)F [Compound 57, (R)-6-methyl-9-(3-((S)-2-((6-oxo-5-(trifluoromethyl)-1,6-dihydropyridazin-4-yl)amino)propoxy)propionyl)-3-(trifluoromethyl)-5,6,8,9, 10, 11-hexahydropyrazino[1,2-a]pyrido[3,2-f][1, 4]diazepan-7(7aH)-one] |  | 500 to 5000 |  | 
21 | C[C@@H](COCCC(=O)N1CCN2c3ncc(C(F)(F)F)c(C(F)F)c3OCC[C@H]2C1)Nc1cn[nH]c(=O)c1C(F)(F)F [Compound 62, 5-(((S)-1-(3-((S)-4-(difluoromethyl)-3-(trifluoromethyl)-6,7,7a, 8, 10, 11-hexahydro-9H-pyrazino[1,2-d]pyrido[3,2-b][1, 4]oxazepane-9-yl)-3-oxypropoxy)prop-2-yl)amino)-4-(trifluoromethyl)pyridazin-3(2H)-one] |  | 100 to 500 |  | 
22 | CC(COCC(O)C(=O)N1CCN2c3ncc(C(F)(F)F)cc3CCC2C1)Nc1cn[nH]c(=O)c1C(F)(F)F (stereo not shown) [Compound 67] |  | < 100 |  | 
23 | CC(COCC(O)C(=O)N1CCN2c3ncc(C(F)(F)F)cc3CCC2C1)Nc1cn[nH]c(=O)c1C(F)(F)F (stereo not shown) [Compound 68] |  |  | < 100 | 
24 | C[C@@H](COCCC(=O)N1CCN2c3ncc(C(F)(F)F)cc3COC[C@H]2C1)Oc1cn[nH]c(=O)c1C(F)(F)F [Compound 69, 5-(((S)-1-(3-oxo-3-((R)-3-(trifluoromethyl)-7a, 8, 10, 11-tetrahydro-5H-pyrazino[2,1-c]pyrido[2,3-e][1, 4]oxazepane-9(7H)-yl)propoxy)prop-2-yl)oxy)-4-(trifluoromethyl)pyridazin-3(2H)-one] |  | < 100 |  | 
25 | C[C@@H](COCCC(=O)N1CCN2c3ncc(C(F)(F)F)cc3NC(C)(C)[C@H]2C1)Nc1cn[nH]c(=O)c1C(F)(F)F [Compound 76] | < 10 |  |  | 
